# Laboratory results: patent publication US5668133A, “Ophthalmic compositions comprising emedastine and methods for their use” (priority 1995, dated 1997)
# Test system: histamine-induced vascular permeability in guinea pig conjunctiva
# Assay: histamine-induced vascular permeability in guinea pig conjunctiva, topical ocular pretreatment
# Type: in vivo, guinea pig (Male Dunkin Hartley)
# Conditions: for Wheal Area × Intensity: 1 min pretreatment
# Procedure: The topical ocular antihistaminic effect of emedastine difumarate was assessed in a model of histamine induced vascular permeability in guinea pig conjunctiva. The potency of emedastine difumarate in this model was then compared with those of reference antihistamines.
# Male Dunkin Hartley Viral Antibody Free outbred guinea pigs (Charles River Labs, Portage, Mich.), weighing approximately 250-350 grams (6/group) were injected intravenously (i.v.) via the marginal ear vein with 1.0 mL of Evans Blue dye (1.0 mg/mL). Forty-five (45) minutes post dye injection, 20 μL of test compound or saline vehicle was applied topically to one eye of each experimental animal. […] Responses were quantitated as described by Yanni et al. in Int. Arch. Allergy Immunol., 101:102-106 (1993). Response scores from the treated groups were then compared with scores obtained in the saline-treated group using Dunnett's t test (Dunnett C. W., "A multiple comparison procedure for comparing treatments with a control." J. Am. Stat. Assoc. 50:1096-1121(1955)). Regression analysis was used to determine relative potency (Bliss, C. and E. Gjorgy. In Vitamin Methods, Vol. 2, pp. 445-610, Academic Press, Inc., New York, 1951.).
# [1] = topically 1 minute before histamine challenge
smiles,measurement,setting,value
"CCOCCn1c(N2CCCN(C)CC2)nc2ccccc21 [Emedastine Difumarate, 1-(2-ethoxyethyl)-2-(4-methyl-1-homopiperazinyl)-benzimidazole]",Wheal Area × Intensity,"0.0001 wt %, antazoline experiment (NaCl 285 ± 19)",159 ± 31
same,Wheal Area × Intensity,"0.0001 wt %, ketotifen/pheniramine experiment (NaCl 276 ± 10)",159 ± 26
same,Wheal Area × Intensity,"0.0001 wt %, pyrilamine experiment (NaCl 308 ± 20)",166 ± 14
same,Wheal Area × Intensity,"0.001 wt %, antazoline experiment (NaCl 285 ± 19)",109 ± 14
same,Wheal Area × Intensity,"0.001 wt %, ketotifen/pheniramine experiment (NaCl 276 ± 10)",141 ± 38
same,Wheal Area × Intensity,"0.001 wt %, pyrilamine experiment (NaCl 308 ± 20)",104 ± 20
same,Wheal Area × Intensity,"0.01 wt %, antazoline experiment (NaCl 285 ± 19)",55 ± 12
same,Wheal Area × Intensity,"0.01 wt %, ketotifen/pheniramine experiment (NaCl 276 ± 10)",45 ± 18
same,Wheal Area × Intensity,"0.01 wt %, levocabastine experiment (NaCl 336 ± 78)",26 ± 27
same,Wheal Area × Intensity,"0.01 wt %, pyrilamine experiment (NaCl 308 ± 20)",57 ± 16
same,ED50 (text),1 minute prior to histamine challenge,0.0002%
same,inhibition of the vascular permeability response,"1 minute, 30 minutes, 2, 4 or 8 hours prior to challenge",inhibited in concentration-dependent fashion
same,Wheal Area × Intensity (X ± S.D.),"30 min pretreatment, 0.000001 wt %, clemastine experiment (NaCl 350 ± 31)",265 ± 35
same,Wheal Area × Intensity (X ± S.D.),"30 min pretreatment, 0.000006 wt %, ketotifen experiment (NaCl 214 ± 41)",154 ± 62
same,Wheal Area × Intensity (X ± S.D.),"30 min pretreatment, 0.000006 wt %, pyrilamine experiment (NaCl 194 ± 41)",136 ± 42
same,Wheal Area × Intensity (X ± S.D.),"30 min pretreatment, 0.00001 wt %, antazoline experiment (NaCl 287 ± 20)",197 ± 57
same,Wheal Area × Intensity (X ± S.D.),"30 min pretreatment, 0.00001 wt %, brompheniramine experiment (NaCl 219 ± 20)",191 ± 48
same,Wheal Area × Intensity (X ± S.D.),"30 min pretreatment, 0.00001 wt %, chlorpheniramine experiment (NaCl 217 ± 35)",161 ± 68
same,Wheal Area × Intensity (X ± S.D.),"30 min pretreatment, 0.00001 wt %, clemastine experiment (NaCl 350 ± 31)",165 ± 30
same,Wheal Area × Intensity (X ± S.D.),"30 min pretreatment, 0.00001 wt %, diphenhydramine experiment (NaCl 214 ± 34)",163 ± 32
same,Wheal Area × Intensity (X ± S.D.),"30 min pretreatment, 0.00001 wt %, levocabastine/pheniramine experiment (NaCl 252 ± 30)",191 ± 27
same,Wheal Area × Intensity (X ± S.D.),"30 min pretreatment, 0.00006 wt %, ketotifen experiment (NaCl 214 ± 41)",91 ± 26
same,Wheal Area × Intensity (X ± S.D.),"30 min pretreatment, 0.00006 wt %, pyrilamine experiment (NaCl 194 ± 41)",75 ± 22
same,Wheal Area × Intensity (X ± S.D.),"30 min pretreatment, 0.0001 wt %, antazoline experiment (NaCl 287 ± 20)",65 ± 32
same,Wheal Area × Intensity (X ± S.D.),"30 min pretreatment, 0.0001 wt %, brompheniramine experiment (NaCl 219 ± 20)",104 ± 47
same,Wheal Area × Intensity (X ± S.D.),"30 min pretreatment, 0.0001 wt %, chlorpheniramine experiment (NaCl 217 ± 35)",112 ± 58
same,Wheal Area × Intensity (X ± S.D.),"30 min pretreatment, 0.0001 wt %, clemastine experiment (NaCl 350 ± 31)",70 ± 27
same,Wheal Area × Intensity (X ± S.D.),"30 min pretreatment, 0.0001 wt %, diphenhydramine experiment (NaCl 214 ± 34)",98 ± 22
same,Wheal Area × Intensity (X ± S.D.),"30 min pretreatment, 0.0001 wt %, levocabastine/pheniramine experiment (NaCl 252 ± 30)",137 ± 24
same,Wheal Area × Intensity (X ± S.D.),"30 min pretreatment, 0.0006 wt %, ketotifen experiment (NaCl 214 ± 41)",16 ± 14
same,Wheal Area × Intensity (X ± S.D.),"30 min pretreatment, 0.0006 wt %, pyrilamine experiment (NaCl 194 ± 41)",6 ± 7
same,Wheal Area × Intensity (X ± S.D.),"30 min pretreatment, 0.001 wt %, antazoline experiment (NaCl 287 ± 20)",4 ± 4
same,Wheal Area × Intensity (X ± S.D.),"30 min pretreatment, 0.001 wt %, brompheniramine experiment (NaCl 219 ± 20)",8 ± 9
same,Wheal Area × Intensity (X ± S.D.),"30 min pretreatment, 0.001 wt %, chlorpheniramine experiment (NaCl 217 ± 35)",18 ± 23
same,Wheal Area × Intensity (X ± S.D.),"30 min pretreatment, 0.001 wt %, clemastine experiment (NaCl 350 ± 31)",6 ± 7
same,Wheal Area × Intensity (X ± S.D.),"30 min pretreatment, 0.001 wt %, diphenhydramine experiment (NaCl 214 ± 34)",12 ± 19
same,Wheal Area × Intensity (X ± S.D.),"30 min pretreatment, 0.001 wt %, levocabastine/pheniramine experiment (NaCl 252 ± 30)",7 ± 9
same,Potency,"30 min pretreatment, relative to emedastine difumarate = 1.0, (95% Confidence limits)",1.0
same,potency compared to ketotifen,30 minute treatment interval,equipotent
same,times more potent than brompheniramine,30 minute treatment interval,7 times
same,times more potent than chlorpheniramine,30 minute treatment interval,7 times
same,times more potent than clemastine,30 minute treatment interval,10 times
same,times more potent than diphenhydramine,30 minute treatment interval,3333 times
same,times more potent than levocabastine,30 minute treatment interval,100 times
same,times more potent than pyrilamine,30 minute treatment interval,10 times
same,times more potent than pheniramine,"30 minute treatment interval, approximate, lack of parallelism",approximately 357 times
same,ED50 (text),30 minutes prior to histamine challenge,0.000035%
same,ED50 (text),2 hours prior to histamine challenge,0.0029%
same,ED50 (text),4 hours prior to histamine challenge,0.019%
same,ED50 (text),8 hours prior to histamine challenge,0.19%
same,ED50,pretreatment 1 min,0.0002 wt %
same,Percent Change,"pretreatment 1 min, 0.0001 wt %",-44%
same,Percent Change,"pretreatment 1 min, 0.001 wt %",-62%
same,Percent Change,"pretreatment 1 min, 0.01 wt %",-81%
same,ED50,pretreatment 30 min,0.000035 wt %
same,Percent Change,"pretreatment 30 min, 0.000006 wt %",-28%
same,Percent Change,"pretreatment 30 min, 0.00006 wt %",-58%
same,Percent Change,"pretreatment 30 min, 0.0006 wt %",-93%
same,ED50,pretreatment 2 hr,0.0029 wt %
same,Percent Change,"pretreatment 2 hr, 0.001 wt %",-35%
same,Percent Change,"pretreatment 2 hr, 0.005 wt %",-53%
same,Percent Change,"pretreatment 2 hr, 0.01 wt %",-72%
same,ED50,pretreatment 4 hr,0.019 wt %
same,Percent Change,"pretreatment 4 hr, 0.001 wt % (first line)",-9%
same,Percent Change,"pretreatment 4 hr, 0.1 wt %",-84%
same,Percent Change,"pretreatment 4 hr, 1.0 wt %",-95%
same,ED50,pretreatment 8 hr,0.19 wt %
same,Percent Change,"pretreatment 8 hr, 0.01 wt %",-5%
same,Percent Change,"pretreatment 8 hr, 0.05 wt %",-33%
same,Percent Change,"pretreatment 8 hr, 0.1 wt %",-43%
same,Percent Change,"pretreatment 8 hr, 0.5 wt %",-66%
same,Percent Change,"pretreatment 8 hr, 1.0 wt %",-71%
same,onset and duration of action,topical ocular administration,rapid onset and an acceptable duration of action
same,times more potent than antazoline,"topical, 0.5 h",~5813 times
same,potency compared to pyrilamine,[1],approximately equipotent
same,times more potent than antazoline,[1],17 times
same,times more potent than ketotifen,[1],3 times
same,times more potent than pheniramine,[1],8 times
